Common to all, as to experiment: relative viability (nuclei count vs DMSO), 5 days (fraction); higher = more cells survive
Compound in assay [1]: CC1=CC=C(C=C1)C(=O)CN2C3=C(CCCC3)SC2=N [Pifithrin_alpha] + Cc1nc(NC(=O)N2CCC[C@H]2C(N)=O)sc1-c1ccnc(C(C)(C)C(F)(F)F)c1 [Alpelisib] (partner 2 µM)
An outline of the steps:
(§1)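 After 5 days of treatment, lung cancer cells in 1536-well plates were fixed and stained in a single step (final 0.05% Triton X-100, 1% formaldehyde, 1 ug/ml Hoechst) and their nuclei counted on 4× images. Treatment had been applied by pin tool the day after seeding as one drug alone or as a fixed anchor-drug dose with five library-drug doses (not always all listed) in √10 steps. Relative viability is the nuclei count of treated wells divided by that of vehicle wells, and values are medians of duplicate plates.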

Compound in assay [2]: CC1=CC=C(C=C1)C(=O)CN2C3=C(CCCC3)SC2=N [Pifithrin_alpha] + O=C(c1cc(Cc2n[nH]c(=O)c3ccccc23)ccc1F)N1CCN(C(=O)C2CC2)CC1 [Olaparib] (partner 8 µM)
An outline of the steps: as §1

Compound in the assay “Axitinib + Trametinib”: CNC(=O)c1ccccc1Sc1ccc2c(/C=C/c3ccccn3)n[nH]c2c1 [Axitinib] + CC(=O)Nc1cccc(-n2c(=O)n(C3CC3)c(=O)c3c(Nc4ccc(I)cc4F)n(C)c(=O)c(C)c32)c1 [Trametinib] (partner 0.02 µM)
The essentials:
as §1

Compound in the assay “Axitinib + Lapatinib”: CNC(=O)c1ccccc1Sc1ccc2c(/C=C/c3ccccn3)n[nH]c2c1 [Axitinib] + CS(=O)(=O)CCNCc1ccc(-c2ccc3ncnc(Nc4ccc(OCc5cccc(F)c5)c(Cl)c4)c3c2)o1 [Lapatinib] (partner 2 µM)
The essentials:
as §1

Take SK-LU-1: the relative viability in assay [1] (first compound 1 µM) was 0.828; in assay [1] (first compound 3.162 µM), 1.19; in assay [1] (first compound 10 µM), 1.13; in assay [1] (first compound 31.62 µM), 0.766; in assay [1] (first compound 100 µM), 1.16; in assay [2] (first compound 1 µM) it was 0.418. In addition, the relative viability in assay [2] (first compound 3.162 µM) came to 0.486; in assay [2] (first compound 10 µM), 0.453; in assay [2] (first compound 31.62 µM) it was 0.354; in assay [2] (first compound 100 µM) it was 0.457; in the assay with Axitinib + Trametinib (first compound 0.005 µM) it was 0.515; with Axitinib + Trametinib (first compound 0.01581 µM), 0.631. The relative viability with Axitinib + Trametinib (first compound 0.05 µM) was determined as 0.478; in the assay with Axitinib + Trametinib (first compound 0.1581 µM), 0.412; in the assay with Axitinib + Trametinib (first compound 0.5 µM), 0.459; with Axitinib + Lapatinib (first compound 0.005 µM) it was 0.976; with Axitinib + Lapatinib (first compound 0.01581 µM) it was 0.951; with Axitinib + Lapatinib (first compound 0.05 µM), 0.942. For the same cell line, the relative viability in the assay with Axitinib + Lapatinib (first compound 0.1581 µM) worked out at 0.835; with Axitinib + Lapatinib (first compound 0.5 µM), 1.39.

SK-MES-1: the relative viability came to 0.882 in assay [1] (first compound 1 µM); 0.955 in assay [1] (first compound 3.162 µM); 0.851 in assay [1] (first compound 10 µM); 0.626 in assay [1] (first compound 31.62 µM); 0.775 in assay [1] (first compound 100 µM); 0.479 in assay [2] (first compound 1 µM). For the same cell line, the relative viability in assay [2] (first compound 3.162 µM) worked out at 0.493; in assay [2] (first compound 10 µM) it was 0.292; in assay [2] (first compound 31.62 µM), 0.241; in assay [2] (first compound 100 µM), 0.373; with Axitinib + Trametinib (first compound 0.005 µM) it was 0.553; with Axitinib + Trametinib (first compound 0.01581 µM), 0.562. The relative viability with Axitinib + Trametinib (first compound 0.05 µM) was found to be 0.569; with Axitinib + Trametinib (first compound 0.1581 µM), 0.485; with Axitinib + Trametinib (first compound 0.5 µM) it was 0.581; with Axitinib + Lapatinib (first compound 0.005 µM), 0.492; in the assay with Axitinib + Lapatinib (first compound 0.01581 µM), 0.454; in the assay with Axitinib + Lapatinib (first compound 0.05 µM), 0.53. Besides, the relative viability with Axitinib + Lapatinib (first compound 0.1581 µM) amounted to 0.446; in the assay with Axitinib + Lapatinib (first compound 0.5 µM) it was 0.547.

For the cell line SW 1573, the relative viability in assay [1] (first compound 1 µM) amounted to 0.715; in assay [1] (first compound 3.162 µM), 0.824; in assay [1] (first compound 10 µM), 0.816; in assay [1] (first compound 31.62 µM), 0.647; in assay [1] (first compound 100 µM), 0.729; in assay [2] (first compound 1 µM) it was 0.493. Also, the relative viability in assay [2] (first compound 3.162 µM) is 0.466; in assay [2] (first compound 10 µM), 0.413; in assay [2] (first compound 100 µM) it was 0.342; in the assay with Axitinib + Trametinib (first compound 0.005 µM), 0.525; in the assay with Axitinib + Trametinib (first compound 0.01581 µM) it was 0.558; in the assay with Axitinib + Trametinib (first compound 0.05 µM) it was 0.665. Moreover, the relative viability with Axitinib + Trametinib (first compound 0.1581 µM) is 0.521; with Axitinib + Trametinib (first compound 0.5 µM) it was 0.611; with Axitinib + Lapatinib (first compound 0.005 µM), 1.15; with Axitinib + Lapatinib (first compound 0.01581 µM), 1.09; in the assay with Axitinib + Lapatinib (first compound 0.05 µM), 1.29; with Axitinib + Lapatinib (first compound 0.1581 µM), 1.06. Also, the relative viability with Axitinib + Lapatinib (first compound 0.5 µM) turned out to be 1.03.

In the case of UMC-11, the relative viability in assay [1] (first compound 1 µM) was 1.09; in assay [1] (first compound 3.162 µM) it was 1.07; in assay [1] (first compound 10 µM), 1.05; in assay [1] (first compound 31.62 µM), 0.842; in assay [1] (first compound 100 µM) it was 1.16; in assay [2] (first compound 1 µM), 0.367. The relative viability was 0.365 in assay [2] (first compound 3.162 µM); 1.09 in assay [2] (first compound 10 µM); 0.402 in assay [2] (first compound 31.62 µM); 0.249 in assay [2] (first compound 100 µM); 0.709 with Axitinib + Trametinib (first compound 0.005 µM); 0.668 with Axitinib + Trametinib (first compound 0.01581 µM). Besides, the relative viability worked out at 0.572 with Axitinib + Trametinib (first compound 0.05 µM); 0.691 in the assay with Axitinib + Trametinib (first compound 0.1581 µM); 0.616 in the assay with Axitinib + Trametinib (first compound 0.5 µM); 0.945 in the assay with Axitinib + Lapatinib (first compound 0.005 µM); 1.06 with Axitinib + Lapatinib (first compound 0.01581 µM); 0.959 in the assay with Axitinib + Lapatinib (first compound 0.05 µM). The relative viability with Axitinib + Lapatinib (first compound 0.1581 µM) came out at 0.916; with Axitinib + Lapatinib (first compound 0.5 µM) it was 0.943.
